Experiments:
SARS-CoV-2 PL^pro [1] = target: T1, SARS-CoV-2 PL^pro (Severe acute respiratory syndrome coronavirus 2, UniProt P0DTD1); assay type: biochemical; details: 200 nM PL^pro, 5 mM DTT, pH 7.5, 30 °C; highest concentration 60 μM
SARS-CoV-2 PL^pro [2] = target: T1, SARS-CoV-2 PL^pro; test: cell-based
MERS-CoV PL^pro = details: read-out: IC50 against MERS-CoV PL^pro; cited from earlier work
SARS-CoV-2 PL^pro [3] = target: T1, SARS-CoV-2 PL^pro; test: Thermal shift binding assay; details: effect on stability of PL^pro
SARS-CoV PL^pro = details: read-out: IC50 against SARS-CoV PL^pro; cited from earlier work

Structure (SMILES)	Validation FRET IC50 (SARS-CoV-2 PL^pro [1])	FlipGFP EC50 (SARS-CoV-2 PL^pro [2])	IC50 (MERS-CoV PL^pro) [µM]	TSA binding result (in words) (SARS-CoV-2 PL^pro [3])	IC50 (SARS-CoV PL^pro) [µM]	EC50 (SARS-CoV-2 PL^pro [2]; FlipGFP EC50) [µM]	Cytotoxicity in FlipGFP assay (in words) (293T cells)
Sc1ncnc2nc[nH]c12 [6-mercaptopurine]	not active	not active	26.9	not active	21.6		
Nc1nc2nc[nH]c2c(=S)[nH]1 [6-thioguanine]		not active	24.4	did not show binding	5		
C[C@H]1COC2=C1C(=O)C(=O)c1c2ccc2c1CCCC2(C)C [Cryptotanshinone]		not active		destabilization			
Cc1cccc2c3c(ccc12)C1=C(C(=O)C3=O)[C@@H](C)CO1 [Dihydrotanshinone I]		not active		did not bind			
Cc1coc2c1C(=O)C(=O)c1c-2ccc2c1CCCC2(C)C [Tanshinone IIA]		not active		denaturation of the protein (no melting peak)		> 20	
Cc1coc2c1C(=O)C(=O)c1c-2ccc2c(C)cccc12 [Tanshinone I]		not active		destabilization			
COCCn1c2c([n+](Cc3cnccn3)c1C)C(=O)c1ccccc1C2=O [YM155]		not conclusive		no effect			cytotoxic

From paper PMC8806001 (ACS Pharmacology & Translational Science, 2022)
